Assay [1] concerns the target T1, human full-length MKNK1 (Homo sapiens, UniProt Q9BUB5, T385D).
T1 construct: GST (Glutathione-S-Transferase) (N); purchased Carna Biosciences 02-145; host or cells: insect cells (baculovirus expression system)
The experiment in a line: MKNK1 kinase high ATP assay (TR-FRET, 2 mM ATP). The note with it: ATP 2 mM, 15 min preincubation, GST-MKNK1 (T344D). The format is biochemical. The procedure:
MKNK1-inhibitory activity at high ATP of compounds of the present invention after their preincubation with MKNK1 was quantified employing the TR-FRET-based MKNK1 high ATP assay as described in the following paragraphs.
A recombinant fusion protein of Glutathione-S-Transferase (GST, N-terminally) and human full-length MKNK1 (amino acids 1-424 and T344D of accession number BAA 19885.1), expressed in insect cells using baculovirus expression system and purified via glutathione sepharose affinity chromatography, was purchased from Carna Biosciences (product no 02-145) and used as enzyme. As substrate for the kinase reaction the biotinylated peptide biotin-Ahx-IKKRKLTRRKSLKG (C-terminus in amide form) was used, which can be purchased e.g. from the company Biosyntan (Berlin-Buch, Germany).
(§1) For the assay 50 nL of a 100fold concentrated solution of the test compound in DMSO was pipetted into a black low volume 384well microtiter plate (Greiner Bio-One, Frickenhausen, Germany), 2 μL of a solution of MKNK1 in aqueous assay buffer [50 mM HEPES pH 7.5, 5 mM magnesium chloride, 1.0 mM dithiothreitol, 0.005% (v/v) Nonidet-P40 (Sigma)] was added and the mixture was incubated for 15 min at 22° C. to allow pre-binding of the test compounds to the enzyme before the start of the kinase reaction. Then the kinase reaction was started by the addition of 3 μL of a solution of adenosine-tri-phosphate (ATP, 3.3 mM=>final conc. in the 5 μL assay volume is 2 mM) and substrate (0.1 μM=>final conc. in the 5 μL assay volume is 0.06 μM) in assay buffer and the resulting mixture was incubated for a reaction time of 30 min at 22° C. The concentration of MKNK1 was adjusted depending of the activity of the enzyme lot and was chosen appropriate to have the assay in the linear range, typical concentrations were in the range of 0.003 μg/mL. The reaction was stopped by the addition of 5 μL of a solution of TR-FRET detection reagents (5 nM streptavidine-XL665 [Cisbio Bioassays, Codolet, France] and 1 nM anti-ribosomal protein S6 (pSer236)-antibody from Invitrogen [#44921G] and 1 nM LANCE EU-W1024 labeled ProteinG [Perkin-Elmer, product no. AD0071]) in an aqueous EDTA-solution (100 mM EDTA, 0.1% (w/v) bovine serum albumin in 50 mM HEPES pH 7.5).
(§2) The resulting mixture was incubated for 1 h at 22° C. to allow the formation of complex between the phosphorylated biotinylated peptide and the detection reagents. Subsequently the amount of phosphorylated substrate was evaluated by measurement of the resonance energy transfer from the Eu-chelate to the streptavidine-XL. Therefore, the fluorescence emissions at 620 nm and 665 nm after excitation at 350 nm were measured in a TR-FRET reader, e.g. a Rubystar (BMG Labtechnologies, Offenburg, Germany) or a Viewlux (Perkin-Elmer). The ratio of the emissions at 665 nm and at […] was taken as the measure for the amount of phosphorylated substrate. The data were normalised (enzyme reaction without inhibitor=0% inhibition, all other assay components but no enzyme=100% inhibition).

Assay [2] concerns the target T2, human full-length MKNK1 (Homo sapiens, UniProt Q9BUB5).
T2 construct: GST (Glutathione-S-Transferase) (N); purchased Carna Biosciences 02-145; host or cells: insect cells (baculovirus expression system)
Kind of assay: MKNK1 kinase assay (TR-FRET, 10 μM ATP). The note with it: ATP 10 μM, 15 min preincubation, GST-MKNK1 (T344D). The format is biochemical.
From the text: MKNK1-inhibitory activity of compounds of the present invention was quantified employing the MKNK1 TR-FRET assay as described in the following paragraphs.
A recombinant fusion protein of Glutathione-S-Transferase (GST, N-terminally) and human full-length MKNK1 (amino acids 1-424 and T344D of accession number BAA 19885.1), expressed in insect cells using baculovirus expression system and purified via glutathione sepharose affinity chromatography, was purchased from Carna Biosciences (product no 02-145) and used as enzyme. As substrate for the kinase reaction the biotinylated peptide biotin-Ahx-IKKRKLTRRKSLKG (C-terminus in amide form) was used which can be purchased e.g. form the company Biosyntan (Berlin-Buch, Germany).
as §1, with “16.7 μM=>final” for “3.3 mM=>final”, “10 μM)” for “2 mM)”, “45” for “30”, “0.05 μg/ml.” for “0.003 μg/mL.”
as §2

Structures are written as SMILES.

For 15 molecules, IC50 results are on record in patent publication US20180022750A1, “6-HYDROXYBENZOFURANYL- AND 6-ALKOXYBENZOFURANYL-SUBSTITUTED IMIDAZOPYRIDAZINES” (BAYER PHARMA AKTIENGESELLSCHAFT, priority 2014, published 2018).

T1 sequence (Q9BUB5 1-424 isoform Q9BUB5-2 T344D): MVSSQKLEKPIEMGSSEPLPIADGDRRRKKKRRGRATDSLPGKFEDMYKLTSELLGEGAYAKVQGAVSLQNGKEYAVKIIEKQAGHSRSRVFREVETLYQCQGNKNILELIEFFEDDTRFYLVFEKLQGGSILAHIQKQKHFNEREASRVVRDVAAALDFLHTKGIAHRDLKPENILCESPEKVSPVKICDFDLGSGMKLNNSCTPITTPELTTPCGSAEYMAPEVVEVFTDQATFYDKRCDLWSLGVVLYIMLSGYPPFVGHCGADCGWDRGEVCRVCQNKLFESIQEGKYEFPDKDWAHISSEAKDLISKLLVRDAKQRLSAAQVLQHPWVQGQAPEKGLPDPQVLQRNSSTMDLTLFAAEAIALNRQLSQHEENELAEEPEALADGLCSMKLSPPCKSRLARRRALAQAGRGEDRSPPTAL
T2 sequence (Q9BUB5 1-424 isoform Q9BUB5-2 T344D): as above

With `COc1ccc2cc(-c3cnc4ccc(OCCCO)nn34)oc2c1` [Example 1, 3-{[3-(6-methoxy-1-benzofuran-2-yl)imidazo[1,2-b]pyridazin-6-yl]oxy}propan-1-ol], the IC50 was determined as 2570 nM on human full-length MKNK1 [1] and 714 nM on human full-length MKNK1 [2].

On to `COCCCOc1ccc2ncc(-c3cc4ccc(OC)cc4o3)n2n1` [Example 2, 3-(6-methoxy-1-benzofuran-2-yl)-6-(3-methoxypropoxy)imidazo[1,2-b]-pyridazine], for which the IC50 against human full-length MKNK1 [1] amounted to 5520 nM; on human full-length MKNK1 [2], 864 nM.

Consider `COc1ccc2cc(-c3cnc4ccc(OCCN)nn34)oc2c1` [Example 3, 2-{[3-(6-methoxy-1-benzofuran-2-yl)imidazo[1,2-b]pyridazin-6-yl]oxy}ethanamine], for which the IC50 against human full-length MKNK1 [1] was determined as 2550 nM; on human full-length MKNK1 [2] it was 977 nM.

Turning to `C[C@H](CN)Oc1ccc2ncc(-c3cc4ccc(O)cc4o3)n2n1` [Example 4, 2-(6-{[(2R)-1-aminopropan-2-yl]oxy}imidazo[1,2-b]pyridazin-3-yl)-1-benzofuran-6-ol], the IC50 was found to be 42.1 nM against human full-length MKNK1 [1] and 49.1 nM against human full-length MKNK1 [2].

For the molecule `CC(=O)NC[C@@H](C)Oc1ccc2ncc(-c3cc4ccc(O)cc4o3)n2n1` [Example 5, N-[(2R)-2-{[3-(6-hydroxy-1-benzofuran-2-yl)imidazo[1,2-b]pyridazin-6-yl]oxy}-propyl]acetamide], the IC50 amounted to 37.7 nM against human full-length MKNK1 [1] and 40.2 nM against human full-length MKNK1 [2].

With `COc1ccc2cc(-c3cnc4ccc(OCCCN)nn34)oc2c1` [Example 6, 3-{[3-(6-methoxy-1-benzofuran-2-yl)imidazo[1,2-b]pyridazin-6-yl]oxy}propan-1-amine], the IC50 against human full-length MKNK1 [1] is 913 nM; at human full-length MKNK1 [2], 343 nM.

`COc1ccc2cc(-c3cnc4ccc(OCC(C)(C)CN(C)C)nn34)oc2c1` [Example 7, 3-{[3-(6-methoxy-1-benzofuran-2-yl)imidazo[1,2-b]pyridazin-6-yl]oxy}-N,N,2,2-tetramethylpropan-1-amine]: the IC50 against human full-length MKNK1 [1] turned out to be 14800 nM; on human full-length MKNK1 [2], 5440 nM.

Regarding `COc1ccc2cc(-c3cnc4ccc(OCCCCN)nn34)oc2c1` [Example 8, 4-{[3-(6-methoxy-1-benzofuran-2-yl)imidazo[1,2-b]pyridazin-6-yl]oxy}butan-1-amine], the IC50 was found to be 798 nM at human full-length MKNK1 [1] and 217 nM against human full-length MKNK1 [2].

On to `COc1ccc2cc(-c3cnc4ccc(OCCCCN(C)C)nn34)oc2c1` [Example 9, 4-{[3-(6-methoxy-1-benzofuran-2-yl)imidazo[1,2-b]pyridazin-6-yl]oxy}-N,N-dimethylbutan-1-amine], for which the IC50 against human full-length MKNK1 [1] turned out to be 1010 nM; against human full-length MKNK1 [2], 434 nM.

Turning to `CCN(CC)CCCC(C)Oc1ccc2ncc(-c3cc4ccc(OC)cc4o3)n2n1` (stereo not drawn) [Example 10, N,N-diethyl-4-{[3-(6-methoxy-1-benzofuran-2-yl)imidazo[1,2-b]pyridazin-6-yl]-oxy}pentan-1-amine], the IC50 was 352 nM against human full-length MKNK1 [1] and 127 nM against human full-length MKNK1 [2].

In the case of `COc1ccc2cc(-c3cnc4ccc(OCCC5CCCN5C)nn34)oc2c1` (stereo not drawn) [Example 11, 3-(6-methoxy-1-benzofuran-2-yl)-6-[2-(1-methylpyrrolidin-2-yl)ethoxy]imidazo-[1,2-b]pyridazine], the IC50 against human full-length MKNK1 [1] came out at 1150 nM; at human full-length MKNK1 [2], 664 nM.

Regarding `COc1ccc2cc(-c3cnc4ccc(OCCN5CCNC5=O)nn34)oc2c1` [Example 12, 1-(2-{[3-(6-methoxy-1-benzofuran-2-yl)imidazo[1,2-b]pyridazin-6-yl]oxy}ethyl)-imidazolidin-2-one], the IC50 on human full-length MKNK1 [1] came out at 2390 nM; against human full-length MKNK1 [2] it was 410 nM.

In the case of `COc1ccc2cc(-c3cnc4ccc(OCCCN5CCOCC5)nn34)oc2c1` [Example 13, 3-(6-methoxy-1-benzofuran-2-yl)-6-[3-(morpholin-4-yl)propoxy]imidazo[1,2-b]-pyridazine], the IC50 stood at 2130 nM against human full-length MKNK1 [1] and 567 nM against human full-length MKNK1 [2].

As for `COc1ccc2cc(-c3cnc4ccc(O[C@H](C)CNC(C)=O)nn34)oc2c1` [Example 14, N-[(2R)-2-{[3-(6-methoxy-1-benzofuran-2-yl)imidazo[1,2-b]pyridazin-6-yl]oxy}-propyl]acetamide], the results for the IC50 against human full-length MKNK1 [1] and at human full-length MKNK1 [2] were 3810 nM and 997 nM, respectively.

`COc1ccc2cc(-c3cnc4ccc(O[C@H](C)CN)nn34)oc2c1` [Example 15, (2R)-2-{[3-(6-methoxy-1-benzofuran-2-yl)imidazo[1,2-b]pyridazin-6-yl]oxy}-propan-1-amine]: the IC50 on human full-length MKNK1 [1] came to 2820 nM; on human full-length MKNK1 [2], 1320 nM.
